Structures can show the parent of a compound that is named as a salt. Where two headings read alike, the source gives them in different places.
Columns and labels:
wild-type sperm = assay: Intracellular pH measurement with BCECF in wild-type sperm; format: cell-based, mouse
tmAC = tested on: T1, tmAC; assay: Maximal cAMP-dependent FRET ratio of mlCNBD-FRET in HEK293 cells after stimulation of endogenous adenylate cyclases with increasing NKH477 concentrations.; format: cell-based; details: SD, n = 4
T1 construct: endogenous in HEK293 cells, isoform not specified

[1] = tested on: sperm flagellum (mlCNBD-FRET sperm); assay: Dual-view FRET imaging of cAMP dynamics in the flagellum of mlCNBD-FRET sperm; format: cell-based, mouse
sperm = details: 25 mM bicarbonate, after rapid rise at 1 min
mlCNBD-FRET = target: T2, mlCNBD-FRET (Mesorhizobium japonicum, UniProt Q98GN8); assay: Spectrofluorometric titration of 1 uM purified sensor with cGMP, cerulean/citrine FRET ratio at 430 nm excitation, single-site fit.; format: binding; details: SD, n = 6
T2 construct: gene mll3241; CNBD (Phe223 to Arg349) with citrine fused to N-terminus and cerulean to C-terminus, C-terminal His10 tag
T2 sequence (Q98GN8 223-349): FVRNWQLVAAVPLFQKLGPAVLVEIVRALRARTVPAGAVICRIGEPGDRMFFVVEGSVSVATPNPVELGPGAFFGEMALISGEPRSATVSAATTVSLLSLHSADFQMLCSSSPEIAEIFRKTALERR

[2] = tested on: HEK293 cells expressing mlCNBD-FRET; assay: cAMP/cGMP dynamics (FRET ratio) in HEK293 cells expressing mlCNBD-FRET after drug stimulation; format: cell-based; details: 20 µM isoproterenol, n = 9
Method: Cells were cultured in Ibidi μ-slides (Ibidi, Planegg, Germany) attached to a home-built gravity-flow perfusion system. Measurements were performed using a CellR live-cell imaging system (Olympus) with 20x objective. Cells were perfused with extracellular solution (ES: 120 mM NaCl, 5 mM KCl, 2 mM MgCl2, 2 mM CaCl2, 10 mM HEPES, 10 mM glucose, pH 7.4) to determine the basal FRET ratio and then the stimulus was added (NKH477 and IBMX, Tocris, Wiesbaden, Germany; Isoproterenol and SNP, Sigma-Aldrich). FRET was recorded by exciting cerulean at 436 nm and measuring the emission of cerulean and citrine at 470 nm and 535 nm, respectively. The change in FRET (emissioncerulean/emissioncitrine) was calculated, corrected for bleed-through, normalized to the baseline, and plotted versus time.
For population measurement using a spectrofluorometer (Quantamaster 40, PTI), HEK293 cells were trypsinized at 37°C for 5 min and washed twice with ES. […] Fluorescence spectra at steady-state were recorded with excitation at 430 nm and 0.5 s integration time. For time-resolved measurements, cells were excited at 430 nm and emission was recorded at 470 nm (cerulean) and 530 nm (citrine) at an acquisition frequency of 1 Hz. The change in FRET (emissioncerulean/emissioncitrine) was calculated, corrected for bleed-through, normalized to the baseline, and plotted versus time.

[3] = tested on: HEK293 cells expressing SSTR3-mlCNBD-FRET; assay: FRET change in HEK293 cells expressing SSTR3-mlCNBD-FRET; format: cell-based; details: 20 μM isoproterenol, n = 9
Method: Cells were cultured in Ibidi μ-slides (Ibidi, Planegg, Germany) attached to a home-built gravity-flow perfusion system. Measurements were performed using a CellR live-cell imaging system (Olympus) with 20x objective. […] Isoproterenol and SNP, Sigma-Aldrich). FRET was recorded by exciting cerulean at 436 nm and measuring the emission of cerulean and citrine at 470 nm and 535 nm, respectively. The change in FRET (emissioncerulean/emissioncitrine) was calculated, corrected for bleed-through, normalized to the baseline, and plotted versus time. The full-length mouse SSTR3 cloned into pEGFP-N1 was kindly provided by Greg Pazour (UMass Medical School). For expression of SSTR3-tagged mlCNBD-FRET, the SSTR3 coding sequence was amplified by a recombinant PCR reaction to delete the internal NheI site. The fragment was subcloned into […].

[4] = stopped-flow, 10 mM NH4Cl or 25 mM bicarbonate
[5] = perfusion with 25 mM bicarbonate, n = 7

O=C([O-])CN(CC(=O)[O-])c1ccccc1OCCOc1ccccc1N(CC(=O)[O-])CC(=O)[O-].[K+].[K+].[K+].[K+] [BAPTA, 1,2-Bis(2-aminophenoxy)ethane-N,N,N′,N′-tetraacetic acid tetrapotassium salt]
change in pHi (wild-type sperm; spectrofluorometer, 3 mM BAPTA reducing [Ca2+]o to 443 nM): did not change pHi

Cl.N [NH4Cl]
change in pHi (wild-type sperm; [4]): pronounced alkalization

C=CC1(C)CC(=O)C2(O)C(C)(O1)C(OC(C)=O)C(OC(=O)CCN(C)C)C1C(C)(C)CCC(O)C12C (centres unmarked) [NKH477, colforsin daropate hydrochloride (water-soluble forskolin derivative)]
EC50 (tmAC): 3600 nM

C=CC1(C)CC(=O)C2(O)C(C)(O1)C(OC(C)=O)C(OC(=O)CCN(C)C)C1C(C)(C)CCC(O)C12C (centres unmarked) [NKH477]
cAMP change (FRET) in midpiece or principal piece ([1]; perfusion with 40 μM NKH477, n = 3): 0 ± 3%

O=C([O-])O.[Na+] [bicarbonate, NaHCO3]
change in pHi (wild-type sperm; [4]): did not dramatically change pHi
change in cAMP (FRET) (mlCNBD-FRET sperm; 25 mM bicarbonate, 10 μM [Ca2+]o): did not change the cAMP concentration
time to steady-state of free cAMP increase (mlCNBD-FRET sperm; 25 mM bicarbonate, 2 mM Ca2+ buffer): about 5 min
change in cAMP (FRET) (mlCNBD-FRET sperm; bicarbonate at 2.2 nM [Ca2+]o (10 μM Ca2+/1 mM BAPTA)): did not further enhance cAMP levels
cAMP increase (FRET) in midpiece [1, 5]: 26 ± 3%
cAMP increase (FRET) in principal piece [1, 5]: 22 ± 10%
time for total cAMP levels to decline to basal levels (sperm): ≤ 10 min

Nc1nc2c(ncn2[C@@H]2O[C@@H]3COP(=O)(O)O[C@H]3[C@H]2O)c(=O)[nH]1 [cGMP, cyclic guanosine 3',5'-monophosphate]
Kd (mlCNBD-FRET): 504 nM

CC(C)NCC(O)c1ccc(O)c(O)c1 (centres unmarked) [isoproterenol]
change of ΔF [2]: 47 ± 3%
increase of FRET ratio [3]: approximately 25%
